In patent US20200055839A1 (priority 2017, published 2020):

Tested on: NL-RLuc virus
Assay: Inhibition of HIV replication (NL-RLuc virus, luciferase readout in MT-2 cells)
Format: cell-based
Conditions: Human immunodeficiency virus 1, MT2, 120 h, MT-2 cells infected with NL-RLuc virus, 5 days of incubation, 10% FBS, at least 2 experiments
Method in brief: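 MT-2 cells infected with NL4-3-derived virus carrying Renilla luciferase in place of part of nef, grown 5 days with serial compound dilutions in RPMI 1640/10% FBS. Virus growth read as luciferase expression. EC50 from median effect equation, at least 2 experiments.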

Structure (SMILES)	EC50 [nM]
Cc1ncc(-c2cnc(OCCc3ccc(F)c(F)c3)c(F)c2)c(N2CCC(C)(C)CC2)c1[C@H](OC(C)(C)C)C(=O)O [Example 392, (2S)-2-(tert-butoxy)-2-{6′-[2-(3,4-difluorophenyl)ethoxy]-4-(4,4-dimethylpiperidin-1-yl)-5′-fluoro-6-methyl-[3,3′-bipyridine]-5-yl}acetic acid]	1
Cc1ncc(-c2cnc(OCCc3c(F)cccc3F)c(F)c2)c(N2CCC(C)(C)CC2)c1[C@H](OC(C)(C)C)C(=O)O [Example 393, (2S)-2-(tert-butoxy)-2-{6′-[2-(2,6-difluorophenyl)ethoxy]-4-(4,4-dimethylpiperidin-1-yl)-5′-fluoro-6-methyl-[3,3′-bipyridine]-5-yl}acetic acid]	2
Cc1ncc(-c2cnc(OCCCC(C)C)c(F)c2)c(N2CCC(C)(C)CC2)c1[C@H](OC(C)(C)C)C(=O)O [Example 394, (2S)-2-(tert-butoxy)-2-[4-(4,4-dimethylpiperidin-1-yl)-5′-fluoro-6-methyl-6′-[(4-methylpentyl)oxy]-[3,3′-bipyridine]-5-yl]acetic acid]	3
Cc1ncc(-c2cnc(OCCc3ccc(Cl)cc3)c(F)c2)c(N2CCC(C)(C)CC2)c1[C@H](OC(C)(C)C)C(=O)O [Example 395, (2S)-2-(tert-butoxy)-2-{6′-[2-(4-chlorophenyl)ethoxy]-4-(4,4-dimethylpiperidin-1-yl)-5′-fluoro-6-methyl-[3,3′-bipyridine]-5-yl}acetic acid]	2
Cc1ncc(-c2cnc(O[C@H](C)c3ccccc3)c(F)c2)c(N2CCC(C)(C)CC2)c1[C@H](OC(C)(C)C)C(=O)O [Example 396, (2S)-2-(tert-butoxy)-2-[4-(4,4-dimethylpiperidin-1-yl)-5′-fluoro-6-methyl-6′-[(1R)-1-phenylethoxy]-[3,3′-bipyridine]-5-yl]acetic acid]	2
Cc1cc(CCOc2ncc(-c3cnc(C)c([C@H](OC(C)(C)C)C(=O)O)c3N3CCC(C)(C)CC3)cc2F)ccc1F [Example 397, (2S)-2-(tert-butoxy)-2-[4-(4,4-dimethylpiperidin-1-yl)-5′-fluoro-6′-[2-(4-fluoro-3-methylphenyl)ethoxy]-6-methyl-[3,3′-bipyridine]-5-yl]acetic acid]	2
Cc1cc(F)ccc1CCOc1ncc(-c2cnc(C)c([C@H](OC(C)(C)C)C(=O)O)c2N2CCC(C)(C)CC2)cc1F [Example 398, (2S)-2-(tert-butoxy)-2-[4-(4,4-dimethylpiperidin-1-yl)-5′-fluoro-6′-[2-(4-fluoro-2-methylphenyl)ethoxy]-6-methyl-[3,3′-bipyridine]-5-yl]acetic acid]	2
COc1ccc(CCOc2ncc(-c3cnc(C)c([C@H](OC(C)(C)C)C(=O)O)c3N3CCC(C)(C)CC3)cc2F)c(C)c1 [Example 399, (2S)-2-(tert-butoxy)-2-[4-(4,4-dimethylpiperidin-1-yl)-5′-fluoro-6′-[2-(4-methoxy-2-methylphenyl)ethoxy]-6-methyl-[3,3′-bipyridine]-5-yl]acetic acid]	2
Cc1ncc(-c2cnc(O[C@@H](C)c3ccccc3)c(F)c2)c(N2CCC(C)(C)CC2)c1[C@H](OC(C)(C)C)C(=O)O [Example 400, (2S)-2-(tert-butoxy)-2-[4-(4,4-dimethylpiperidin-1-yl)-5′-fluoro-6-methyl-6′-[(1S)-1-phenylethoxy]-[3,3′-bipyridine]-5-yl]acetic acid]	6
Cc1ccc(F)cc1CCOc1ncc(-c2cnc(C)c([C@H](OC(C)(C)C)C(=O)O)c2N2CCC(C)(C)CC2)cc1F [Example 401, (2S)-2-(tert-butoxy)-2-[4-(4,4-dimethylpiperidin-1-yl)-5′-fluoro-6′-[2-(5-fluoro-2-methylphenyl)ethoxy]-6-methyl-[3,3′-bipyridine]-5-yl]acetic acid]	2
Cc1ncc(-c2cnc(OCC(C)(C)c3ccccc3)c(F)c2)c(N2CCC(C)(C)CC2)c1[C@H](OC(C)(C)C)C(=O)O [Example 402, (2S)-2-(tert-butoxy)-2-[4-(4,4-dimethylpiperidin-1-yl)-5′-fluoro-6-methyl-6′-(2-methyl-2-phenylpropoxy)-[3,3′-bipyridine]-5-yl]acetic acid]	3
Cc1ncc(-c2cnc(OCCc3ccc(F)c(Cl)c3)c(F)c2)c(N2CCC(C)(C)CC2)c1[C@H](OC(C)(C)C)C(=O)O [Example 403, (2S)-2-(tert-butoxy)-2-{6′-[2-(3-chloro-4-fluorophenyl)ethoxy]-4-(4,4-dimethylpiperidin-1-yl)-5′-fluoro-6-methyl-[3,3′-bipyridine]-5-yl}acetic acid]	2
Cc1ncc(-c2cnc(OCCc3c(F)cc(F)cc3F)c(F)c2)c(N2CCC(C)(C)CC2)c1[C@H](OC(C)(C)C)C(=O)O [Example 404, (2S)-2-(tert-butoxy)-2-[4-(4,4-dimethylpiperidin-1-yl)-5′-fluoro-6-methyl-6′-[2-(2,4,6-trifluorophenyl)ethoxy]-[3,3′-bipyridine]-5-yl]acetic acid]	3
Cc1ccc(CCOc2ncc(-c3cnc(C)c([C@H](OC(C)(C)C)C(=O)O)c3N3CCC(C)(C)CC3)cc2F)cc1 [Example 405, (2S)-2-(tert-butoxy)-2-[4-(4,4-dimethylpiperidin-1-yl)-5′-fluoro-6-methyl-6′-[2-(4-methylphenyl)ethoxy]-[3,3′-bipyridine]-5-yl]acetic acid]	4
Cc1ncc(-c2cnc(OCCCc3ccccc3)c(F)c2)c(N2CCC(C)(C)CC2)c1[C@H](OC(C)(C)C)C(=O)O [Example 406, (2S)-2-(tert-butoxy)-2-[4-(4,4-dimethylpiperidin-1-yl)-5′-fluoro-6-methyl-6′-(3-phenylpropoxy)-[3,3′-bipyridine]-5-yl]acetic acid]	4
CCCCCOc1ncc(-c2cnc(C)c([C@H](OC(C)(C)C)C(=O)O)c2N2CCC(C)(C)CC2)cc1F [Example 407, (2S)-2-(tert-butoxy)-2-[4-(4,4-dimethylpiperidin-1-yl)-5′-fluoro-6-methyl-6′-(pentyloxy)-[3,3′-bipyridine]-5-yl]acetic acid]	4
CCCCCOc1ccc(-c2cnc(C)c([C@H](OC(C)(C)C)C(=O)O)c2N2CCC(C)(C)CC2)cn1 [Example 408, (S)-2-(tert-Butoxy)-2-(4-(4,4-dimethylpiperidin-1-yl)-6-methyl-6′-(pentyloxy)-[3, 3′-bipyridin]-5-yl)acetic acid]	2
COc1cc(-c2cnc(C)c([C@H](OC(C)(C)C)C(=O)O)c2N2CCC(C)(C)CC2)cnc1OCC(C)C [Example 410, (S)-2-(tert-Butoxy)-2-(4-(4,4-dimethylpiperidin-1-yl)-6′-isobutoxy-5′-methoxy-6-methyl-[3,3′-bipyridin]-5-yl)acetic acid]	6
Cc1ncc(-c2ccc(C(F)CC(C)C)nc2)c(N2CCC(C)(C)CC2)c1[C@H](OC(C)(C)C)C(=O)O (stereo partly drawn) [Example 411, (2S)-2-(tert-Butoxy)-2-(4-(4,4-dimethylpiperidin-1-yl)-6′-(1-fluoro-3-methylbutyl)-6-methyl-[3, 3′-bipyridin]-5-yl)acetic acid]	20
Cc1cccc(Cl)c1CCOc1ccc(-c2cnc(C)c([C@H](OC(C)(C)C)C(=O)O)c2N2CCC(C)(C)CC2)cn1 [Example 412, (S)-2-(tert-Butoxy)-2-(6′-(2-chloro-6-methylphenethoxy)-4-(4,4-dimethylpiperidin-1-yl)-6-methyl-[3, 3′-bipyridin]-5-yl)acetic acid]	4
COc1nc(OCC(C)C)ccc1-c1cnc(C)c([C@H](OC(C)(C)C)C(=O)O)c1N1CCC(C)(C)CC1 [Example 413, (S)-2-(tert-Butoxy)-2-(4-(4,4-dimethylpiperidin-1-yl)-6′-isobutoxy-2′-methoxy-6-methyl-[3,3′-bipyridin]-5-yl)acetic acid]	16
CCCCNc1ncc(-c2cnc(C)c([C@H](OC(C)(C)C)C(=O)O)c2N2CCC(C)(C)CC2)cc1F [Example 414, (S)-2-(tert-Butoxy)-2-(6′-(butylamino)-4-(4,4-dimethylpiperidin-1-yl)-5′-fluoro-6-methyl-[3,3′-bipyridin]-5-yl)acetic acid]	3
Cc1ncc(-c2cnc(NCC(C)C)c(F)c2)c(N2CCC(C)(C)CC2)c1[C@H](OC(C)(C)C)C(=O)O [Example 415, (S)-2-(tert-Butoxy)-2-(4-(4,4-dimethylpiperidin-1-yl)-5′-fluoro-6′-(isobutylamino)-6-methyl-[3, 3′-bipyridin]-5-yl)acetic acid]	2
Cc1ncc(-c2cnc(OCC(C)C)c(Cl)c2)c(N2CCC(C)(C)CC2)c1[C@H](OC(C)(C)C)C(=O)O [Example 417, (S)-2-(tert-Butoxy)-2-(5′-chloro-4-(4,4-dimethylpiperidin-1-yl)-6′-isobutoxy-6-methyl-[3,3′-bipyridin]-5-yl)acetic acid]	12
Cc1nc(OCC(C)C)ccc1-c1cnc(C)c([C@H](OC(C)(C)C)C(=O)O)c1N1CCC(C)(C)CC1 [Example 418, (S)-2-(tert-Butoxy)-2-(4-(4,4-dimethylpiperidin-1-yl)-6′-isobutoxy-2′,6-dimethyl-[3, 3′-bipyridin]-5-yl)acetic acid]	107
Cc1ncc(-c2cncc(CCC(C)C)c2)c(N2CCC(C)(C)CC2)c1[C@H](OC(C)(C)C)C(=O)O [Example 419, (S)-2-(tert-Butoxy)-2-(4-(4,4-dimethylpiperidin-1-yl)-5′-isopentyl-6-methyl-[3, 3′-bipyridin]-5-yl)acetic acid]	31

Same assay, conditions: MT-2 cells infected with NL-RLuc virus, 5 days of incubation, 10% FBS, at least 2 experiments

Structure (SMILES)	EC50 [nM]
Cc1ncc(-c2cnc(NCCc3ccc(F)cc3)c(F)c2)c(N2CCC(C)(C)CC2)c1[C@H](OC(C)(C)C)C(=O)O [Example 416, (S)-2-(tert-Butoxy)-2-(4-(4,4-dimethylpiperidin-1-yl)-5′-fluoro-6′-((4-fluorophenethyl)amino)-6-methyl-[3, 3′-bipyridin]-5-yl)acetic acid]	0.6
